Test results as given in PMC6941823, “A dispensable paralog of succinate dehydrogenase subunit C mediates standing resistance towards a subclass of SDHI fungicides in Zymoseptoria tritici” (PLoS Pathogens, 2019).
Like-named read-outs stand apart in the source and are kept apart here.

Key:
[1] = molecular target: SQR of 06STD024 (SDHC / altC) mitochondria (Zymoseptoria tritici, UniProt A0A1X7RQW2+F9X9V6+F9XH52+O42772); assay: Succinate-quinone (SQR) SDHI sensitivity assay on purified mitochondria, 06STD024; assay type: biochemical; details: for RF (resistance factor), 06STD024 (SDHC / altC): IC50 ratio compared to IPO323 values; for IC50: mitochondria of field isolate 06STD024, mean of three ± SD
How it was run: (§1)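 Succinate:ubiquinone/DCPIP reductase inhibition measured on purified mitochondria from Zymoseptoria tritici strains carrying either a single C-subunit gene (ZtSDHC1, ZtSDHC1_A84I or ZtSDHC3) or both ZtSDHC1 and ZtSDHC3; pTet::SDHC3 transformant tested under repressed and induced conditions.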

[2] = molecular target: SQR (SDHC / altC) of IPO323 pTet::SDHC3 transformant, repressed (Zymoseptoria tritici, UniProt A0A1X7RQW2+F9X9V6+F9XH52+O42772); assay: Succinate-quinone (SQR) SDHI sensitivity assay on purified mitochondria, IPO323 pTet::SDHC3 repressed; assay type: biochemical; details: for RF (resistance factor), pTet Repressed (SDHC / altC): IC50 ratio compared to IPO323 values; for IC50: IPO323 pTet::SDHC3 transformant grown in presence of 30 mg.L^-1 doxycycline, mean of three ± SD
Chain of SQR (SDHC / altC) of IPO323 pTet::SDHC3 transformant, repressed (F9XH52 44-187): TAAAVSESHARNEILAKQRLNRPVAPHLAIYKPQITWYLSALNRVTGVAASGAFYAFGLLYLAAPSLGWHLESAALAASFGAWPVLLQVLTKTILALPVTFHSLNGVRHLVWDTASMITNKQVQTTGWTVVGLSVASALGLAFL
Chain of SQR (SDHC / altC) of IPO323 pTet::SDHC3 transformant, repressed (O42772 20-297): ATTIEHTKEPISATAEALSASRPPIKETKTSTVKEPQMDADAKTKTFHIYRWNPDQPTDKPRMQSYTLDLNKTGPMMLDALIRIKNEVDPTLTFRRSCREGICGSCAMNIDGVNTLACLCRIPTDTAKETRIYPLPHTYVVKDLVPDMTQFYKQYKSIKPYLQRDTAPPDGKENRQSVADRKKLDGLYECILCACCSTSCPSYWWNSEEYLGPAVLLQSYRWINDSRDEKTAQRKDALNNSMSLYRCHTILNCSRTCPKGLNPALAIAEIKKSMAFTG
Chain of SQR (SDHC / altC) of IPO323 pTet::SDHC3 transformant, repressed (F9X9V6 1-193): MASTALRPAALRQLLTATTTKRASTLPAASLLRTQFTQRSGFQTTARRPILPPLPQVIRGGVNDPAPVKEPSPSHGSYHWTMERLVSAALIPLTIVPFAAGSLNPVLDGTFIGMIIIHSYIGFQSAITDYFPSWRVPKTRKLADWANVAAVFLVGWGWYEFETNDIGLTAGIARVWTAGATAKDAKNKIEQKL
Chain of SQR (SDHC / altC) of IPO323 pTet::SDHC3 transformant, repressed (A0A1X7RQW2 36-181): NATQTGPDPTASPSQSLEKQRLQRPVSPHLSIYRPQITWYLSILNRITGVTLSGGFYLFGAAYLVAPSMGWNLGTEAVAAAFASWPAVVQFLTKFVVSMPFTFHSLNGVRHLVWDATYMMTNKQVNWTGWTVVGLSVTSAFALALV
Chain of SQR (SDHC / altC) of IPO323 pTet::SDHC3 transformant, repressed (F9WWR1 41-643 partner): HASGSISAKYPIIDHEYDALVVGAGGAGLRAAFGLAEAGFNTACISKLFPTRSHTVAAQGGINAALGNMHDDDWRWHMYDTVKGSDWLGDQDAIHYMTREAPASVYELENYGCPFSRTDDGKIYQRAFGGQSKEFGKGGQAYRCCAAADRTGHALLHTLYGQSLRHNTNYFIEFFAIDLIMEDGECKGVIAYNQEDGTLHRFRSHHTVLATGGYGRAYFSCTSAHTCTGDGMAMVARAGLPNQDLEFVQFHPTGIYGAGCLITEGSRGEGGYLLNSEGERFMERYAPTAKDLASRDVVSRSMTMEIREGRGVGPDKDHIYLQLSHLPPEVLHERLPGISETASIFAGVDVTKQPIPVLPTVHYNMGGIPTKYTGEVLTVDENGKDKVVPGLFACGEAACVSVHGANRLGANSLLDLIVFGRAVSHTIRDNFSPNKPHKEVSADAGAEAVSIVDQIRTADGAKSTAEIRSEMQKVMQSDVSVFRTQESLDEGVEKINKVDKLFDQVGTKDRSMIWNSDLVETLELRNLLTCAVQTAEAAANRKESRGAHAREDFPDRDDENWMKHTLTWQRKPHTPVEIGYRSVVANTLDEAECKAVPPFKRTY
How it was run: as §1

[3] = molecular target: WT-SQR (SDHC), IPO323 mitochondria (Zymoseptoria tritici, UniProt F9X9V6+F9XH52+O42772); assay: Succinate-quinone (SQR) SDHI sensitivity assay on purified mitochondria, IPO323; assay type: biochemical; details: mitochondria of IPO323; mean of three determinations ± SD; read-out: Succinate-quinone IC50, IPO323 (SDHC)
How it was run: (§2)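 Mitochondria purified from each strain were used for succinate:ubiquinone/DCPIP reductase assays, with suspensions adjusted to similar initial velocity (1 OD595nm hour^-1). Inhibitor was tested at 0.047 nM–50 μM in 4x steps (11 concentrations plus DMSO). IC50 came from non-linear fits of absorbance slopes (OD/min) against log concentration.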

[4] = molecular target: C_A84I-SQR (SDHC_A84I), IPO323_Flu21 mitochondria (Zymoseptoria tritici, UniProt F9X9V6+F9XH52+O42772, A84I); assay: Succinate-quinone (SQR) SDHI sensitivity assay on purified mitochondria, IPO323_Flu21; assay type: biochemical; details: for RF (resistance factor), IPO323_Flu21 (SDHC_A84I): IC50 ratio compared to IPO323 values; for IC50: mitochondria of UV mutant IPO323_Flu21, mean of three ± SD
Chain of C_A84I-SQR (SDHC_A84I), IPO323_Flu21 mitochondria (F9XH52 44-187, stated change not applied): as the sequence (F9XH52 44-187) above
Chain of C_A84I-SQR (SDHC_A84I), IPO323_Flu21 mitochondria (O42772 19-297, stated change not applied): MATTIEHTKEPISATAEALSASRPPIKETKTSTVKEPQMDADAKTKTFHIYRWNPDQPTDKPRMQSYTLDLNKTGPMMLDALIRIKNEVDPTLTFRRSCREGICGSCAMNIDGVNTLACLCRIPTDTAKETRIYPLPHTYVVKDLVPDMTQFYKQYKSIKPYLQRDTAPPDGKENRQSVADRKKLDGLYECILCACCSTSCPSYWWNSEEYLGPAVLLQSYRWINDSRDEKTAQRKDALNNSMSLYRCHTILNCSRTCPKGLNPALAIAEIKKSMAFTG
Chain of C_A84I-SQR (SDHC_A84I), IPO323_Flu21 mitochondria (F9X9V6 whole entry, stated change not applied): as the sequence (F9X9V6 1-193) above
Chain of C_A84I-SQR (SDHC_A84I), IPO323_Flu21 mitochondria (F9WWR1 29-643 partner): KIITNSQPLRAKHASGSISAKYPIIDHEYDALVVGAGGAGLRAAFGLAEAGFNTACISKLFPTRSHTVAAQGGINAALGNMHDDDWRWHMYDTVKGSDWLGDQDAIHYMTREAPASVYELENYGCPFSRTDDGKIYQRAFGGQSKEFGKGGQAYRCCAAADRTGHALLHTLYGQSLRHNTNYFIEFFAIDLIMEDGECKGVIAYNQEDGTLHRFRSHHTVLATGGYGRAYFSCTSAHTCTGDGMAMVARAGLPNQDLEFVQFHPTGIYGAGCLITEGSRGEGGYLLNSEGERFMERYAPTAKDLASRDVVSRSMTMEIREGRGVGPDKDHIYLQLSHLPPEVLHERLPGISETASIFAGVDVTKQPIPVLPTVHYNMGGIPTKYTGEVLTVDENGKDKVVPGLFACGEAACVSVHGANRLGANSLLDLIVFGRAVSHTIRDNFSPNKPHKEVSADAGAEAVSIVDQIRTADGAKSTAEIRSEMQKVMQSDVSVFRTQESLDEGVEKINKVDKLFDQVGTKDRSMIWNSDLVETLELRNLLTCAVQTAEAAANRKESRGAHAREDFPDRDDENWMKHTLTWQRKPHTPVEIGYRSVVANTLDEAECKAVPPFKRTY
Method: Succinate-ubiquinone oxidoreductase (SQR) inhibition assays were performed on mitochondrial extracts from a panel of strains that were (i) either carrying a unique C-subunit encoding gene (ZtSDHC1, ZtSDHC1_A84I or Zt-SDHC3), or (ii) carrying two C-subunit encoding genes ZtSDHC1 and ZtSDHC3 (Table 1).
Biomass production, mitochondrial extraction and purification were performed as described in [14]. Succinate: ubiquinone/DCPIP sensitivity tests were performed as described in [14] with minor modification. The different mitochondrial suspensions were adjusted to similar initial velocity (1 OD595nm hour^-1) and inhibitor concentrations ranged between 0.047nM and 50μM with uniform 4x dilution steps (11 concentrations + DMSO control). Calculated absorbance slopes (OD/min) were used for IC50 calculations using GraphPad Prism 6.07 software non-linear curve fitting against log inhibitor concentrations.

[5] = molecular target: SQR (SDHC) of D024 SDHC3 KO mitochondria (Zymoseptoria tritici, UniProt F9X9V6+F9XH52+O42772); assay: Succinate-quinone (SQR) SDHI sensitivity assay on purified mitochondria, 06STD024 SDHC3 KO; assay type: biochemical; details: for RF (resistance factor), D024 SDHC3 KO (SDHC): IC50 ratio compared to IPO323 values; for IC50: mitochondria of 06STD024 ZtSDHC3 deletion mutant, mean of three ± SD
Chain of SQR (SDHC) of D024 SDHC3 KO mitochondria (F9XH52 44-187): as the sequence (F9XH52 44-187) above
Chain of SQR (SDHC) of D024 SDHC3 KO mitochondria (O42772 19-297): as the sequence (O42772 19-297, stated change not applied) above
Chain of SQR (SDHC) of D024 SDHC3 KO mitochondria (F9X9V6 1-193): as the sequence (F9X9V6 1-193) above
Chain of SQR (SDHC) of D024 SDHC3 KO mitochondria (F9WWR1 29-643 partner): as the sequence (F9WWR1 29-643 partner) above
How it was run: as §2

[6] = molecular target: altC-SQR (altC) of D024 SDHC1 KO mitochondria (Zymoseptoria tritici, UniProt A0A1X7RQW2+F9X9V6+O42772); assay: Succinate-quinone (SQR) SDHI sensitivity assay on purified mitochondria, 06STD024 SDHC1 KO; assay type: biochemical; details: for RF (resistance factor), D024 SDHC1 KO (altC): IC50 ratio compared to IPO323 values; for IC50: mitochondria of 06STD024 ZtSDHC1 deletion mutant (pure altC-SQR), mean of three ± SD
How it was run: as §1

[7] = tested on: SQR (SDHC / altC) of IPO323 pTet::SDHC3 transformant, induced; assay: Succinate-quinone (SQR) SDHI sensitivity assay on purified mitochondria, IPO323 pTet::SDHC3 induced; assay type: biochemical, Zymoseptoria tritici; details: for RF (resistance factor), pTet Induced (SDHC / altC): IC50 ratio compared to IPO323 values; for IC50: IPO323 pTet::SDHC3 transformant grown in the absence of doxycycline, mean of three ± SD
How it was run: as §1

[8] = tested on: Zymoseptoria tritici field and genetically modified strains; assay: Liquid culture assay for fungicide sensitivity determination; assay type: cell-based; details: liquid culture sensitivity, read-out: EC50 (nM) Mean
How it was run: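 EC50s from liquid culture growth tests with field isolates and modified strains. Population monitoring used final concentrations 100 to 0.0001 mg.L^-1 in 10x steps (7 levels plus DMSO control); refined panel profiling used 0.5 mM to 0.47 nM in 4x steps (11 levels plus DMSO).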

Cn1cc(C(=O)Nc2ccccc2-c2cc(F)c(F)c(F)c2)c(C(F)F)n1 [Fluxapyroxad]
RF (resistance factor), 06STD024 (SDHC / altC) [1]: 0.8
IC50 [1]: 3.5 ± 0.3 nM
RF (resistance factor), pTet Repressed (SDHC / altC) [2]: 1.1
IC50 [2]: 4.5 ± 1 nM
IC50 [3]: 4.3 ± 1.1 nM
RF (resistance factor), IPO323_Flu21 (SDHC_A84I) [4]: 1.2
IC50 [4]: 5.1 ± 0.7 nM
RF (resistance factor), D024 SDHC3 KO (SDHC) [5]: 0.8
IC50 [5]: 3.3 ± 0.8 nM
RF (resistance factor), D024 SDHC1 KO (altC) [6]: 0.7
IC50 [6]: 3.1 ± 0.4 nM
RF (resistance factor), pTet Induced (SDHC / altC) [7]: 0.8
IC50 [7]: 3.3 ± 0.6 nM
EC50 ([8]; strain 06STD024): 83.2 nM
EC50 ([8]; strain 07STGB009): 72.2 nM
EC50 ([8]; strain 09STD041): 142 nM
EC50 ([8]; strain 09STD053): 132 nM
EC50 ([8]; strain 09STF011): 119 nM
EC50 ([8]; strain 09STF037): 110 nM
EC50 ([8]; strain 09STF112): 152 nM
EC50 ([8]; strain 09STIR20.3): 295 nM
EC50 ([8]; strain Flu21 (SDHC1_A84I)): 818 nM
EC50 ([8]; strain IPO323): 102 nM
EC50 ([8]; strain IPO94269): 121 nM
EC50 ([8]; strain KO_SDHC1_T1): 438 nM
EC50 ([8]; strain KO_SDHC1_T3): 361 nM
EC50 ([8]; strain KO_SDHC3_T4): 216 nM
EC50 ([8]; strain KO_SDHC3_T13): 144 nM
EC50 ([8]; strain pTet::SDHC3_I78A_T1): 115 nM
EC50 ([8]; strain pTet::SDHC3_I78A_T5): 265 nM
EC50 ([8]; strain pTet::SDHC3_I78A_T15): 145 nM
EC50 ([8]; strain pTet::SDHC3_I78A_T35): 79.5 nM
EC50 ([8]; strain pTet::SDHC3_T1): 148 nM
EC50 ([8]; strain pTet::SDHC3_T2): 129 nM
EC50 ([8]; strain pTet::SDHC3_T3): 102 nM
EC50 ([8]; strain pTet::SDHC3_T7): 197 nM

CC(C)C1C2CCC1c1c(NC(=O)c3cn(C)nc3C(F)F)cccc12 (stereo not drawn) [Isopyrazam]
RF (resistance factor), 06STD024 (SDHC / altC) [1]: 3.3
IC50 [1]: 2.6 ± 0.6 nM
RF (resistance factor), pTet Repressed (SDHC / altC) [2]: 1.5
IC50 [2]: 1.2 ± 0.3 nM
IC50 [3]: 0.8 ± 0.1 nM
RF (resistance factor), IPO323_Flu21 (SDHC_A84I) [4]: 6.4
IC50 [4]: 5.2 ± 2.6 nM
RF (resistance factor), D024 SDHC3 KO (SDHC) [5]: 0.7
IC50 [5]: 0.6 ± 0.2 nM
RF (resistance factor), D024 SDHC1 KO (altC) [6]: 2.9
IC50 [6]: 2.4 ± 0.5 nM
RF (resistance factor), pTet Induced (SDHC / altC) [7]: 2.1
IC50 [7]: 1.7 ± 0.4 nM
EC50 ([8]; strain 06STD024): 108 nM
EC50 ([8]; strain 07STGB009): 75.5 nM
EC50 ([8]; strain 09STD041): 116 nM
EC50 ([8]; strain 09STD053): 56 nM
EC50 ([8]; strain 09STF011): 109 nM
EC50 ([8]; strain 09STF037): 46.1 nM
EC50 ([8]; strain 09STF112): 66.2 nM
EC50 ([8]; strain 09STIR20.3): 112 nM
EC50 ([8]; strain Flu21 (SDHC1_A84I)): 785 nM
EC50 ([8]; strain IPO323): 46 nM
EC50 ([8]; strain IPO94269): 72.8 nM
EC50 ([8]; strain KO_SDHC1_T1): 332 nM
EC50 ([8]; strain KO_SDHC1_T3): 293 nM
EC50 ([8]; strain KO_SDHC3_T4): 83.7 nM
EC50 ([8]; strain KO_SDHC3_T13): 96.7 nM
EC50 ([8]; strain pTet::SDHC3_I78A_T1): 60.4 nM
EC50 ([8]; strain pTet::SDHC3_I78A_T5): 120 nM
EC50 ([8]; strain pTet::SDHC3_I78A_T15): 81.1 nM
EC50 ([8]; strain pTet::SDHC3_I78A_T35): 17 nM
EC50 ([8]; strain pTet::SDHC3_T1): 195 nM
EC50 ([8]; strain pTet::SDHC3_T2): 284 nM
EC50 ([8]; strain pTet::SDHC3_T3): 175 nM
EC50 ([8]; strain pTet::SDHC3_T7): 233 nM
